Source: ChEMBL document CHEMBL5523756, “Molecular Transformers: Adaptive Multitarget Ligands for Esterase-Induced Transition from Analgesics to Anesthetics” (J Med Chem, 2024)
Active and inactive are the calls of the source. The calls are words filed in the database; no cut-off is given here.

What was measured:
[1] = Stability of compound assessed as porcine liver esterase mediated propofol release by measuring half life at 1 mg/ml by HPLC analysis; assay type: ADME, Sus scrofa; settings: pig, isolated protein
[2] = molecular target: Sodium channel protein type 10 subunit alpha (Homo sapiens, UniProt Q9Y5Y9); assay: Binding affinity to Nav1.8 (unknown origin) expressed in HEK293T cells assessed as retention time of compound at 1 mg/ml by cell membrane chromatography; assay type: cell membranes
[3] = system: Rattus norvegicus; assay: Analgesic activity in Sprague-Dawley rat model of thermal nociception assessed as increase in hind-paw withdrawal latency at 19 mg/kg administered as continuous infusion followed by maintenance at 3.25 mg/kg/min for 0 to 20 mins, 2.5 mg/kg/min for 20 to 30 mins and 2 mg/kg/min for 30 to 60 mins; assay type: functional, organism-based; settings: route par, TDE = time-dependent effect
[4] = Toxicity in Sprague-Dawley rat assessed as effect on respiratory frequency at 19 mg/kg administered as continuous infusion followed by maintenance at 3.25 mg/kg/min for 0 to 20 mins, 2.5 mg/kg/min for 20 to 30 mins and 2 mg/kg/min for 30 to 60 mins and measured every 5 mins for 60 mins by whole-body plethysmography; assay type: organism-based; settings: in vivo, other, 1 h, route par
[5] = Toxicity in Sprague-Dawley rat assessed as effect on minute ventilation box at 19 mg/kg administered as continuous infusion followed by maintenance at 3.25 mg/kg/min for 0 to 20 mins, 2.5 mg/kg/min for 20 to 30 mins and 2 mg/kg/min for 30 to 60 mins and measured every 5 mins for 60 mins by whole-body plethysmography; assay type: organism-based; settings: in vivo, other, 1 h, route par
[6] = Toxicity in Sprague-Dawley rat assessed as effect on amount of respiration at 19 mg/kg administered as continuous infusion followed by maintenance at 3.25 mg/kg/min for 0 to 20 mins, 2.5 mg/kg/min for 20 to 30 mins and 2 mg/kg/min for 30 to 60 mins and measured every 5 mins for 60 mins by whole-body plethysmography; assay type: organism-based; settings: in vivo, other, 1 h, route par
[7] = Toxicity in Sprague-Dawley rat assessed as Q-T interval prolongation at 19 mg/kg administered as continuous infusion followed by maintenance at 3.25 mg/kg/min for 0 to 20 mins, 2.5 mg/kg/min for 20 to 30 mins and 2 mg/kg/min for 30 to 60 mins by electrocardiogram recording; assay type: organism-based; settings: in vivo, other, 1 h, route par
[8] = system: Mus musculus; assay: Antiseizure activity in iv dosed ICR mouse model of PTZ-induced acute seizure assessed as prolongation of latency time before onset of first convulsion preadministered for 1 min followed by PTZ treatment; assay type: functional, organism-based
[9] = system: Mus musculus; assay: Antiseizure activity in iv dosed ICR mouse model of PTZ-induced acute seizure assessed as reduction in maximum seizure class preadministered for 1 min followed by PTZ treatment and measured for 15 mins by Racine's scale based analysis; assay type: functional, organism-based; settings: time 16.0 min
[10] = Toxicity in Sprague-Dawley rat assessed as effect on AST level at 19 mg/kg administered as continuous infusion followed by maintenance at 3.25 mg/kg/min for 0 to 20 mins, 2.5 mg/kg/min for 20 to 30 mins and 2 mg/kg/min for 30 to 60 mins; assay type: organism-based; settings: in vivo, other, 1 h, route par
[11] = Toxicity in Sprague-Dawley rat assessed as effect on creatinine level at 19 mg/kg administered as continuous infusion followed by maintenance at 3.25 mg/kg/min for 0 to 20 mins, 2.5 mg/kg/min for 20 to 30 mins and 2 mg/kg/min for 30 to 60 mins; assay type: organism-based; settings: in vivo, other, 1 h, route par
[12] = Toxicity in Sprague-Dawley rat assessed as effect on alpha-HBDH level at 19 mg/kg administered as continuous infusion followed by maintenance at 3.25 mg/kg/min for 0 to 20 mins, 2.5 mg/kg/min for 20 to 30 mins and 2 mg/kg/min for 30 to 60 mins; assay type: organism-based; settings: in vivo, other, 1 h, route par
[13] = Toxicity in Sprague-Dawley rat assessed as effect on LDH level at 19 mg/kg administered as continuous infusion followed by maintenance at 3.25 mg/kg/min for 0 to 20 mins, 2.5 mg/kg/min for 20 to 30 mins and 2 mg/kg/min for 30 to 60 mins; assay type: organism-based; settings: in vivo, other, 1 h, route par
[14] = Toxicity in ICR mouse assessed as histopathological changes in heart at 1.5 times ED50, iv administered as single dose and measured after 14 days by H and E staining based analysis; assay type: organism-based; settings: in vivo, 336 h, time 14 day
[15] = Toxicity in ICR mouse assessed as histopathological changes in kidney at 1.5 times ED50, iv administered as single dose and measured after 14 days by H and E staining based analysis; assay type: organism-based; settings: in vivo, 336 h, time 14 day
[16] = Toxicity in Sprague-Dawley rat assessed as histopathological changes in liver at 19 mg/kg administered as continuous infusion followed by maintenance at 3.25 mg/kg/min for 0 to 20 mins, 2.5 mg/kg/min for 20 to 30 mins and 2 mg/kg/min for 30 to 60 mins and measured after 14 days by H and E staining based analysis; assay type: organism-based; settings: in vivo, other, 336 h, route par, time 14 day
[17] = Toxicity in Sprague-Dawley rat assessed as histopathological changes in heart at 19 mg/kg administered as continuous infusion followed by maintenance at 3.25 mg/kg/min for 0 to 20 mins, 2.5 mg/kg/min for 20 to 30 mins and 2 mg/kg/min for 30 to 60 mins and measured after 14 days by H and E staining based analysis; assay type: organism-based; settings: in vivo, other, 336 h, route par, time 14 day
[18] = Toxicity in Sprague-Dawley rat assessed as histopathological changes in kidney at 19 mg/kg administered as continuous infusion followed by maintenance at 3.25 mg/kg/min for 0 to 20 mins, 2.5 mg/kg/min for 20 to 30 mins and 2 mg/kg/min for 30 to 60 mins and measured after 14 days by H and E staining based analysis; assay type: organism-based; settings: in vivo, other, 336 h, route par, time 14 day
[19] = molecular target: Cytochrome P450 3A4 (Homo sapiens, UniProt P08684); assay: Inhibition of CYP3A4 (unknown origin) using midazolam as substrate at 10 uM; assay type: ADME
[20] = molecular target: Cytochrome P450 2C9 (Homo sapiens, UniProt P11712); assay: Inhibition of CYP2C9 (unknown origin) using diclofenac as substrate at 10 uM; assay type: ADME
[21] = molecular target: Cytochrome P450 2D6 (Homo sapiens, UniProt P10635); assay: Inhibition of CYP2D6 (unknown origin) using dextromethorphan as substrate at 10 uM; assay type: ADME
[22] = Stability of compound in 0.1M PBS at 1 mg/ml measured upto 360 mins by HPLC analysis; assay type: physicochemical; settings: buffer, 6 h
[23] = molecular target: GABA-A receptor; alpha-1/beta-2/gamma-2 (Homo sapiens) (UniProt P14867+P47870+P18507); assay: Agonist activity at alpha1beta2gamma2 GABA-A receptor (unknown origin) at 10 uM at -70 mV holding potential by electrophysiological recording; assay type: protein-complex assay
[24] = molecular target: Sodium channel protein type 9 subunit alpha (Homo sapiens, UniProt Q15858); assay: Inhibition of Nav1.7 channel (unknown origin) at resting state at -120 mV conditioning pulse by voltage clamp electrophysiological recording
[25] = molecular target: Sodium channel protein type 5 subunit alpha (Homo sapiens, UniProt Q14524); assay: Inhibition of Nav1.5 channel (unknown origin) at resting state at -120 mV conditioning pulse by voltage clamp electrophysiological recording; assay type: toxicity
[26] = system: DRG neuron; assay: Modulation of CFA-induced male ICR mouse DRG neuron excitability assessed as reduction in action potential firing frequency at 10 uM by whole cell […] assay; assay type: functional, cell-based

Sequence of Sodium channel protein type 10 subunit alpha (Q9Y5Y9 whole entry, looked up, the tested form may be a part): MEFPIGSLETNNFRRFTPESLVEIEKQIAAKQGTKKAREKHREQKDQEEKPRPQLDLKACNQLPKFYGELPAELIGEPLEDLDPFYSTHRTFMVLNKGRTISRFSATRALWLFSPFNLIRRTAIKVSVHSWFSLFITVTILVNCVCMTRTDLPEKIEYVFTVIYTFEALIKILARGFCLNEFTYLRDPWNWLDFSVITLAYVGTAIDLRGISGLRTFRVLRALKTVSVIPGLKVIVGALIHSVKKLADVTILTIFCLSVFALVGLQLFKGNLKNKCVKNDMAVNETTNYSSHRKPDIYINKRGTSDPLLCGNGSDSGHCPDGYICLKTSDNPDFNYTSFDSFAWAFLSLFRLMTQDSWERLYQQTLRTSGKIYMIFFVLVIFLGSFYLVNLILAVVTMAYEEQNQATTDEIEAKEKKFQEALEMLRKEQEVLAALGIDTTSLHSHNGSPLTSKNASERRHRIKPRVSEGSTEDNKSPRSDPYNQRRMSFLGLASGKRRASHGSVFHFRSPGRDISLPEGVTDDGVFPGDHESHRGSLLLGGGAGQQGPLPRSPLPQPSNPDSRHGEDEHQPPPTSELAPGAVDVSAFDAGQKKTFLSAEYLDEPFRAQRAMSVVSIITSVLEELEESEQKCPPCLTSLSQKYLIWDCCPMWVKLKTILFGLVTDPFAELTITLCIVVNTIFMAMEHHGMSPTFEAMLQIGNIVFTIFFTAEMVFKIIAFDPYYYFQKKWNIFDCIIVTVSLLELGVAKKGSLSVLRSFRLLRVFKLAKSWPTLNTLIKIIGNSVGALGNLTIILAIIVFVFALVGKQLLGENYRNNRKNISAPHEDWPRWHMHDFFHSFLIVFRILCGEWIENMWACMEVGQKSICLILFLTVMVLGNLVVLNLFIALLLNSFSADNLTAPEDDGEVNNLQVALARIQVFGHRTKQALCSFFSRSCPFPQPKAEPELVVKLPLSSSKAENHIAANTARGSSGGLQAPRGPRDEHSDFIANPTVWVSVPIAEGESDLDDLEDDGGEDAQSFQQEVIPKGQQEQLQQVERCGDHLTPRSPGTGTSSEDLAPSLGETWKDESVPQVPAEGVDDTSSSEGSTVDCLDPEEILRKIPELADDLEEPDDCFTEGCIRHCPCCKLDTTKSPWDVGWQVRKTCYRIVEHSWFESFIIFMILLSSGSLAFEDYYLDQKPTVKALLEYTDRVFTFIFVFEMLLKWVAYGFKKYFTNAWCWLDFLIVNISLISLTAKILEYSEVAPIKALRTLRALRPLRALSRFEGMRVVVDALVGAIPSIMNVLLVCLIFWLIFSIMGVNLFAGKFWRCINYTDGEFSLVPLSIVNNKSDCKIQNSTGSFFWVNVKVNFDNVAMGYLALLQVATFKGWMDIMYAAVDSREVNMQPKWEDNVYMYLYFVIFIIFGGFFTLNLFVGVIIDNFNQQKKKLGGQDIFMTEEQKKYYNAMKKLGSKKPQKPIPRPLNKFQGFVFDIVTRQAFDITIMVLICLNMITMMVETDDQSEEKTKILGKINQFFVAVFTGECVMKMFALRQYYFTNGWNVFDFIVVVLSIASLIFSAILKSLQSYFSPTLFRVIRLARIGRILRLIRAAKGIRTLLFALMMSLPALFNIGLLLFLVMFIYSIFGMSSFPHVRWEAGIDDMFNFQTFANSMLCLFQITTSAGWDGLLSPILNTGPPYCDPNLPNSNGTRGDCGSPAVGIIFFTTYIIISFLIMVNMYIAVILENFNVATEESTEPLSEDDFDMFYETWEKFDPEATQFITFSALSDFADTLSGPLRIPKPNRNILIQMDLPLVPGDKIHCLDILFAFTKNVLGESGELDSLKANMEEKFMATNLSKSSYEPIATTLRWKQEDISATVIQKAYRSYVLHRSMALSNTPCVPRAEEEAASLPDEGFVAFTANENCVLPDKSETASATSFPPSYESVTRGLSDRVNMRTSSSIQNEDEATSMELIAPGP
Sequence of Sodium channel protein type 5 subunit alpha (Q14524 whole entry): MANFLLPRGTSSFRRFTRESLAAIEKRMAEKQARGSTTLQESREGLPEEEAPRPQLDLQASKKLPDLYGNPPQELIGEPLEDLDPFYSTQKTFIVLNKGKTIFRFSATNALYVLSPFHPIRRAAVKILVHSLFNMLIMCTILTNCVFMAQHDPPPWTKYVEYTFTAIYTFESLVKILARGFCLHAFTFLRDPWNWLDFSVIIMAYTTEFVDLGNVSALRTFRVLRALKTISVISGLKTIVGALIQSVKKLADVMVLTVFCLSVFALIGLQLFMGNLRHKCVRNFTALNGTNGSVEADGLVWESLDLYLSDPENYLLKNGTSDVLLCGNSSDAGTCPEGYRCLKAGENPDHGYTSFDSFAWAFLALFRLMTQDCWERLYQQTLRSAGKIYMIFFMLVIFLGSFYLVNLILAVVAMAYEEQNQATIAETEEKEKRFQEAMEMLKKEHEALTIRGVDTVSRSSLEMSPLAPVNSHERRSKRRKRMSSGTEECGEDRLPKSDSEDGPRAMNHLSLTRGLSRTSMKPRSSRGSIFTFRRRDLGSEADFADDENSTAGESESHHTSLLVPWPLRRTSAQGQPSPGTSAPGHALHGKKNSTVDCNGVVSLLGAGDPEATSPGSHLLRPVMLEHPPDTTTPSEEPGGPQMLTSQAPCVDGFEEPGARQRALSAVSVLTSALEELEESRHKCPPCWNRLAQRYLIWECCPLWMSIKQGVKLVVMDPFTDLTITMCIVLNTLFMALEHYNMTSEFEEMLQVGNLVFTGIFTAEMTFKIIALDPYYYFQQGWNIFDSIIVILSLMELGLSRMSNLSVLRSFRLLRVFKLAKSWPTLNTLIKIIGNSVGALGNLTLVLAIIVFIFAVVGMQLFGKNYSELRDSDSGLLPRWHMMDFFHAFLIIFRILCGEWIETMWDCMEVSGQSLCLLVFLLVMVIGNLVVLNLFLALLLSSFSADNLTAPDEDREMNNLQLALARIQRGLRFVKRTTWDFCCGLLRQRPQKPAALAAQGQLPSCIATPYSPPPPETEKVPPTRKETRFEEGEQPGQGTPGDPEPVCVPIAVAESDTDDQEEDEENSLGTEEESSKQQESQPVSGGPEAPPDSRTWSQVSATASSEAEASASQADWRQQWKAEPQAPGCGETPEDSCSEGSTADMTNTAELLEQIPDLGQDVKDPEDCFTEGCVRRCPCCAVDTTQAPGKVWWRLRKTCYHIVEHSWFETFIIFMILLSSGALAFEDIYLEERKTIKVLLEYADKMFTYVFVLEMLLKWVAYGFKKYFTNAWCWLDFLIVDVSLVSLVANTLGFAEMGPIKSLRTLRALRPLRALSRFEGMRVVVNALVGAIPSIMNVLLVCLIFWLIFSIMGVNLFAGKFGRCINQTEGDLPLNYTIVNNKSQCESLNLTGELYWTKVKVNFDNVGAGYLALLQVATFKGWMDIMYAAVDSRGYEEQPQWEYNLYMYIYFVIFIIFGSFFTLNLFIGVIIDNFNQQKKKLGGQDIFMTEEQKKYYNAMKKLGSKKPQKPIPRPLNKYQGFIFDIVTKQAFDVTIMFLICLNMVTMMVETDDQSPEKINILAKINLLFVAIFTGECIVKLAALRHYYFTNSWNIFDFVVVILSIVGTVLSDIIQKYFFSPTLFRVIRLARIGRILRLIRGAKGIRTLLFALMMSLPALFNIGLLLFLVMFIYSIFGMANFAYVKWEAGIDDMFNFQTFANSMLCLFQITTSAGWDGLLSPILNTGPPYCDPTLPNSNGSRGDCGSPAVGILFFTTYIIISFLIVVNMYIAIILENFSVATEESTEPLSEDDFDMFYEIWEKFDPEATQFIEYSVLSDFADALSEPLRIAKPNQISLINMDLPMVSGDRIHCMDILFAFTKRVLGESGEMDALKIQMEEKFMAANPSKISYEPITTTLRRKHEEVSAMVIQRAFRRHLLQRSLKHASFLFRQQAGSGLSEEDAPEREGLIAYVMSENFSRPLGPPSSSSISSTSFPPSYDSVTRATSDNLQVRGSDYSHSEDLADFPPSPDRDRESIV
Sequence of Cytochrome P450 2C9 (P11712 whole entry): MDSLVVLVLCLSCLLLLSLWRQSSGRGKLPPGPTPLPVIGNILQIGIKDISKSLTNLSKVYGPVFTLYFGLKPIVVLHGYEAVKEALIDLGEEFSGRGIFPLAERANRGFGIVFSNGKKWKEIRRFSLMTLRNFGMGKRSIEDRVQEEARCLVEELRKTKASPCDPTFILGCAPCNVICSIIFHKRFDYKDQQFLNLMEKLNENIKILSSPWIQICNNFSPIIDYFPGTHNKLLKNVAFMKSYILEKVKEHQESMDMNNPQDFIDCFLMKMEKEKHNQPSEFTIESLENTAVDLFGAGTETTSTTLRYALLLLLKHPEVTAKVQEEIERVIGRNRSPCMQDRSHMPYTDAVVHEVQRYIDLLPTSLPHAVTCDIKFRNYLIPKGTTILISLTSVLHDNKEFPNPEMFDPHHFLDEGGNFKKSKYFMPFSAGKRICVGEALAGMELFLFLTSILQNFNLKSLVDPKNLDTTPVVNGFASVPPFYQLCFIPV
Sequence of Cytochrome P450 2D6 (P10635 whole entry): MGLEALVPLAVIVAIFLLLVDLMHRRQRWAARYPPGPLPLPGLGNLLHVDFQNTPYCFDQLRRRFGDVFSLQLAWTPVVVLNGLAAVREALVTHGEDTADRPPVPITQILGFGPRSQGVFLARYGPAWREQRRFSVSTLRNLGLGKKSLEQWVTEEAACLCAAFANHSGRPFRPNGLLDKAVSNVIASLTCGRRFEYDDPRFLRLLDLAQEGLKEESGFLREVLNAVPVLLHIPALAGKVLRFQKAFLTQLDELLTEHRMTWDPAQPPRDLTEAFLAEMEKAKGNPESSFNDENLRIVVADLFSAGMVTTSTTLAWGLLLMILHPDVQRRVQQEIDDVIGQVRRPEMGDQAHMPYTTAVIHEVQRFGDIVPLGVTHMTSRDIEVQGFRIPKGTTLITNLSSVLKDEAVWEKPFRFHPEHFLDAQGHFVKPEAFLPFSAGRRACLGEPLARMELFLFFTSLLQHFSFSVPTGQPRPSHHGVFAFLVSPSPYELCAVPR

Compound: CCN(CC)CCOC(=O)Oc1c(C(C)C)cccc1C(C)C.Cl
- t1/2 [1]: 8.609 min
- Retention time [2]: 112 min
- Activity [3]: Tde
- Activity [4]: Non-Toxic
- Activity [5]: Non-Toxic
- Activity [6]: Non-Toxic
- Activity [7]: Non-Toxic
- Activity [8]: Active
- Activity [9]: Active
- Activity [10]: Non-Toxic
- Activity [11]: Non-Toxic
- Activity [12]: Non-Toxic
- Activity [13]: Non-Toxic
- Activity [14]: Non-Toxic
- Activity [15]: Non-Toxic
- Activity [16]: Non-Toxic
- Activity [17]: Non-Toxic
- Activity [18]: Non-Toxic
- inhibition (INH) [19]: Not Active
- inhibition (INH) [20]: Not Active
- inhibition (INH) [21]: Not Active
- Stability [22]: Stable
- Activity [23]: inactive
- IC50 [24]: > 30 µM
- IC50 [25]: 23.5 µM
- Activity [26]: Active
